Measured values taken from patent publication US8637557B2, “Aminothiazole derivative” (Taisho Pharmaceutical Co., Ltd, priority 2009, dated 2014).

Biological target: T1, human PI 3-kinase p120γ (Homo sapiens, UniProt P48736)
T1 construct: purchased Millipore Corporation
Assay: PI 3-kinase p120γ enzyme activity inhibition test
Assay type: biochemical
Settings: ATP 10.0 μM, PIP2-PS 5.0 μM, 30° C., 2 hours; read-out: PI3Kγ (IC50 value class)
Procedure: Using human PI 3-kinase p120γ (manufactured by Millipore Corporation) and a mixed micellized product (hereinafter abbreviated as PIP2-PS) of the substrate thereof, L-a-Phosphatidyl-D-myo-inositol-4,5-bisphosphate (product of Calbiochem, hereinafter abbreviated as PIP2), and L-a-Phosphatidyl-L-Serine (manufactured by Sigma, hereinafter abbreviated as PS), the compound of the present invention was examined for the inhibitory action on PI3 Kinase p120γ enzyme activity (Km=8.9 μM for ATP, Km=4.0 μM for PIP2-PS).
PIP2-PS was prepared by mixing 500 μM of PIP2 and 2.5 nM of PS and sonicating the mixture for 40 minutes while ice cooling to cause micellization. ATP (final concentration 10.0 μM), [γ-^33P] ATP (final concentration 10 μCi/ml), PIP2-PS (final concentration 5.0 μM) and DMSO solutions of the test compound in different concentrations (compound final concentration 1.0×10^−5 to 2.4×10^−12 M, DMSO final concentration 0.1%) were added to PI 3-kinase p120γ, stirred and reacted at 30° C. for 2 hours. Using Phospholipid-Coated FlashPlate Microplates, 96-Well and Phospholipid FlashPlate Coating Buffer (both manufactured by PerkinElmer Co., Ltd.), PIP2-PS and phosphorylated PIP2-PS were allowed to be adsorbed to the well wall of the plate and collected. The well was washed twice with PBS (Phosphate-Buffered Saline) and dried. The radioactivity was measured using Top Count NXT (manufactured by PerkinElmer Co., Ltd.), whereby the phosphorylated amount (a) of PIP2-PS at the time of compound addition was calculated.
The same procedure was carried out in the absence of the test compound and the phosphorylated amount (b) of PIP2-PS was calculated. Further, the same procedure was carried out in the absence of both of the substrate and the test compound, and the PIP2-PS phosphorylated amount (c) of the background was calculated.
The PI3 Kinase p120γ enzyme activity suppression rate of the compound was calculated by the following formula. Suppression rate (%)=[1−(a−c)/(b−c)]×100
More specifically, using the suppression rate by the test compound of different concentrations, the IC50 value was calculated according to the dose-dependent inhibition curve analyzed by a data analysis software Origin (Lightstone Corp.) and used as the inhibitory activity index.

T1 sequence (P48736 whole entry): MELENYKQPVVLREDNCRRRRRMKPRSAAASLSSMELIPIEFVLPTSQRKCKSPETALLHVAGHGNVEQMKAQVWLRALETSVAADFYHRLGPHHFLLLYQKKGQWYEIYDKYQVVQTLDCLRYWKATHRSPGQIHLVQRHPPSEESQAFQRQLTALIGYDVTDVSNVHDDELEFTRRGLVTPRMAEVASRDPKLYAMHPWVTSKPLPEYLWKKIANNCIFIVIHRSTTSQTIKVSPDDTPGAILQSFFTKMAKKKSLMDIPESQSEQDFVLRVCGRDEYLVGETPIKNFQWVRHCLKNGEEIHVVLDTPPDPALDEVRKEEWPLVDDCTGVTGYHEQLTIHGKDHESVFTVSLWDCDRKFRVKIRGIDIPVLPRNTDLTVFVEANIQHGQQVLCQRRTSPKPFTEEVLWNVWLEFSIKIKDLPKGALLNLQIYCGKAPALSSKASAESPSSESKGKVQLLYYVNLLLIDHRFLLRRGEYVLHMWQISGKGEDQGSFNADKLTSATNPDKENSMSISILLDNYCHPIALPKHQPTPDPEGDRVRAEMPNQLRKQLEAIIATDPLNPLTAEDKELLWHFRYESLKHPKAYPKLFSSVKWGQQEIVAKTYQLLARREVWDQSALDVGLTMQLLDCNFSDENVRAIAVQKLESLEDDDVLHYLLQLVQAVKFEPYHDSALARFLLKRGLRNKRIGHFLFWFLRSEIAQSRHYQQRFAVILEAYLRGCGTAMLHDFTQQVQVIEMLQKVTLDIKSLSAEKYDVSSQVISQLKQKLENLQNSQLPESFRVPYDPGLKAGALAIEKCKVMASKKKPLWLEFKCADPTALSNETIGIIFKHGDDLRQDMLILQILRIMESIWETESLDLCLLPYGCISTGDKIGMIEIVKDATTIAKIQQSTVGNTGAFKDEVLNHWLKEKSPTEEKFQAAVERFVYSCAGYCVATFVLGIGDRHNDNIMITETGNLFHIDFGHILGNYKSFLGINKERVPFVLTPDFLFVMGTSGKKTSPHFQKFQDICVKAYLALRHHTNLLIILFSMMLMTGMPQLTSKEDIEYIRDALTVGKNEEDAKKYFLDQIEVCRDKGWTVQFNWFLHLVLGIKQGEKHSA

IC50 [nM]	SMILES
100 to 500	CC(=O)Nc1nc(C)c(-c2nc(CC3(CO)COC3)no2)s1 [Example 57]
500 to 10000	COC(Cc1noc(-c2sc(NC(C)=O)nc2C)n1)OC [Example 52]
100 to 500	CC(=O)Nc1nc(C)c(-c2nc(CC(C)O)no2)s1 (stereo not shown) [Example 38]
< 100	CC(=O)Nc1nc(C)c(-c2nc(/C=C(\C)CO)no2)s1 [Example 98]
100 to 500	CC(=O)Nc1nc(C)c(-c2nc(C(N)=O)no2)s1 [Example 70]
< 100	CC(=O)Nc1nc(C)c(-c2nc(CS(C)(=O)=O)no2)s1 [Example 24]
< 100	CC(=O)Nc1nc(C)c(-c2nc(CC3CC3)no2)s1 [Example 80]
< 100	CC(=O)Nc1nc(C)c(-c2nc(C(C)=O)no2)s1 [Example 60]
< 100	CC(=O)Nc1nc(C)c(-c2nc(C(C)(C)O)no2)s1 [Example 64]
< 100	CC(=O)Nc1nc(C)c(-c2nc(CC(F)(F)F)no2)s1 [Example 19]
100 to 500	CC(=O)Nc1nc(C)c(-c2nc(CC(C)(C)S(=O)(=O)NC(C)(C)C)no2)s1 [Example 94]
< 100	CC(=O)Nc1nc(C)c(-c2nc(C(C)(C)C)no2)s1 [Example 2, N-[5-(3-tert-butyl-1,2,4-oxadiazol-5-yl)-4-methyl-1,3-thiazol-2-yl]acetamide]
500 to 10000	CNCc1noc(-c2sc(NC(C)=O)nc2C)n1 [Example 79]
< 100	CC(=O)Nc1nc(C)c(-c2nc(CC(C)(C)CO)no2)s1 [Example 31, N-{5-[3-(3-hydroxy-2,2-dimethylpropyl)-1,2,4-oxadiazol-5-yl]-4-methyl-1,3-thiazol-2-yl}acetamide]
100 to 500	CC(=O)Nc1nc(C)c(-c2nc(CCCO)no2)s1 [Example 33]
< 100	CC(=O)Nc1nc(C)c(-c2nc(CC(C)(CO)CO)no2)s1 [Example 42]
< 100	CC(=O)Nc1nc(C)c(-c2nc(CC(C)C)no2)s1 [Example 20]
< 100	COCC(C)(C)Cc1noc(-c2sc(NC(C)=O)nc2C)n1 [Example 51]
< 100	CC(=O)Nc1nc(C)c(-c2nc(CC(C)(C)C(C)(C)O)no2)s1 [Example 106]
100 to 500	CC(=O)Nc1nc(C)c(-c2nc(CC(C)(C)S(N)(=O)=O)no2)s1 [Example 107]
100 to 500	COCc1noc(-c2sc(NC(C)=O)nc2C)n1 [Example 50]
< 100	CC(=O)Nc1nc(C)c(-c2nc(C3CC3)no2)s1 [Example 83]
100 to 500	C=Cc1noc(-c2sc(NC(C)=O)nc2C)n1 [Example 35]

Further lines, the compound ahead of its results:

SMILES	IC50 [nM]
Cc1nc(NC(=O)OCCC(=O)OC(C)(C)C)sc1-c1nc(-c2cccnc2)no1 [Example 129, Tert-butyl-3-[({4-methyl-5-[3-(pyridin-3-yl)-1,2,4-oxadiazol-5-yl]-1,3-thiazol-2-yl}carbamoyl)oxy]propanoate]	< 100
Cc1nc(NC(=O)NCCNC(=O)OC(C)(C)C)sc1-c1nc(-c2cccnc2)no1 [Example 134]	< 100
CC(=O)Nc1nc(C)c(-c2nc(-c3cncnc3)no2)s1 [Example 3, N-{4-methyl-5-[3-(pyrimidin-5-yl)-1,2,4-oxadiazol-5-yl]-1,3-thiazol-2-yl}acetamide]	< 100
Cc1nc(NC(=O)NCCC(=O)NC(C)(CO)CO)sc1-c1nc(CC(F)(F)F)no1 [Example 164]	< 100
CC(=O)Nc1nc(C)c(-c2nc(CCc3cccnc3)no2)s1 [Example 12]	100 to 500
Cc1nc(NC(=O)NCCc2cn(C(C)C)cn2)sc1-c1nc(CC(C)(C)CO)no1 [Example 162]	< 100
CC(=O)Nc1nc(C)c(-c2nc([C@H]3CCCO3)no2)s1 [Example 92]	100 to 500
CCOC(=O)CC(C)NC(=O)Nc1nc(C)c(-c2nc(-c3cccnc3)no2)s1 (stereo not shown) [Example 143]	< 100
CC(=O)Nc1nc(C)c(-c2nc(C(=O)NC3COC3)no2)s1 [Example 96]	100 to 500
Cc1nc(NC(=O)NCCC(=O)NC(C)(C)C)sc1-c1nc(CC(C)(C)CO)no1 [Example 161]	< 100
CC(=O)Nc1nc(C)c(-c2nc(-c3cccnc3)no2)s1 [Example 1, N-{4-methyl-5-[3-(pyridin-3-yl)-1,2,4-oxadiazol-5-yl]-1,3-thiazol-2-yl}acetamide]	< 100
CC(=O)Nc1nc(C)c(-c2nc(N3CCCC(O)C3)no2)s1 (stereo not shown) [Example 93]	< 100
COCCNC(=O)CCNC(=O)Nc1nc(C)c(-c2nc(CC(F)(F)F)no2)s1 [Example 167]	< 100
CC(=O)Nc1nc(C)c(-c2nc(Cc3cccc(O)c3)no2)s1 [Example 49]	100 to 500
CC(=O)Nc1nc(C)c(-c2nc(Cc3cccnc3)no2)s1 [Example 8]	500 to 10000
CC(=O)Nc1nc(C)c(-c2nc(N3CC[C@H](O)C3)no2)s1 [Example 102]	100 to 500
CCOC(=O)Nc1nc(C)c(-c2nc(CC(C)(C)CO)no2)s1 [Example 158]	< 100
Cc1nc(N)sc1-c1nc(C(C)(C)C)no1 [Example 114]	< 100
CC(=O)Nc1nc(C)c(-c2nc(-c3cc[nH]c(=O)c3)no2)s1 [Example 113]	100 to 500

SMILES	IC50 [nM]
Cc1nc(NC(=O)NCCCOC(C)(C)C)sc1-c1nc(CC(C)(C)CO)no1 [Example 160]	< 100
CC(=O)Nc1nc(C)c(-c2nc(-c3cccc(CCO)c3)no2)s1 [Example 28]	< 100
Cc1nc(NC(=O)NCCC(=O)OC(C)(C)C)sc1-c1nc(-c2cncnc2)no1 [Example 141]	< 100
CC(=O)Nc1nc(C)c(-c2nc(-c3cnccn3)no2)s1 [Example 23]	< 100
CC(=O)Nc1nc(C)c(-c2nc(-c3ccc(C)nc3)no2)s1 [Example 17]	< 100
COCC(=O)Nc1nc(C)c(-c2nc(-c3cccc(CO)c3)no2)s1 [Example 173]	< 100
CC(=O)Nc1nc(C)c(-c2nc(CC(C)(C)C(O)c3ccccc3)no2)s1 (stereo not shown) [Example 100]	100 to 500
CC(=O)Nc1nc(C)c(-c2nc(C3CCOC3)no2)s1 (stereo not shown) [Example 63]	< 100
Cc1nc(N)sc1-c1nc(CC(C)(C)CO)no1 [Example 156]	< 100
Cc1nc(NC(=O)NCCN)sc1-c1nc(-c2cccnc2)no1 [Example 138]	< 100
Cc1nc(NC(=O)NCCCOC(C)(C)C)sc1-c1nc(-c2cccnc2)no1 [Example 130]	< 100
CC(=O)Nc1nc(C)c(-c2nc(Cc3cccc(CO)c3)no2)s1 [Example 36]	500 to 10000
CC(=O)Nc1nc(C)c(-c2nc(-c3cnccc3C)no2)s1 [Example 14]	< 100
CC(=O)Nc1nc(C)c(-c2nc(CN3CCOCC3)no2)s1 [Example 75]	500 to 10000
CC(=O)Nc1nc(C)c(-c2nc(-c3cccc(O)c3)no2)s1 [Example 27]	< 100
Cc1nc(NC(=O)NCCC(=O)N(C)C)sc1-c1nc(-c2cccnc2)no1 [Example 131]	< 100
Cc1nc(NC(=O)NCC(C)O)sc1-c1nc(-c2cccc(O)c2)no1 (stereo not shown) [Example 174]	< 100
Cc1nc(NC(=O)NCCC(=O)OC(C)(C)C)sc1-c1nc(C2CCCCC2)no1 [Example 153]	< 100
CC(=O)Nc1nc(C)c(-c2nc(-c3cccc(CO)c3)no2)s1 [Example 21]	< 100
